Molecular target: T1, RORc ligand binding domain (Homo sapiens, UniProt P51449)
T1 sequence (P51449 269-508 limits assumed): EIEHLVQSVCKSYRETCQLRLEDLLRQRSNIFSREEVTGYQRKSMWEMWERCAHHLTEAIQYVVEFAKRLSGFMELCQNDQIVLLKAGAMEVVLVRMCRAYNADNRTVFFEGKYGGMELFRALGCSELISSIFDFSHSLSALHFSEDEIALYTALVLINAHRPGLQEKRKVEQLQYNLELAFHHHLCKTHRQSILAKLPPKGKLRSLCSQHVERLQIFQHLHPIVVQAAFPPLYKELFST
Assay: In Vitro RORc Ligand Binding Assay
Conditions: RORc IC50, radioligand 25-[3H]hydroxycholesterol 6 nM; 0.6 ug/mL RORc receptor; 3 h at 25° C.

Row | IC50 | Compound
1 | 0.015 µM | CC1(C)[C@H]2CC[C@]1(c1ncccn1)c1nnc(-c3c(F)cccc3F)cc12 [Example 1, (5R,8R)-3-(2,6-difluorophenyl)-9,9-dimethyl-8-(pyrimidin-2-yl)-5,6,7,8-tetrahydro-5,8-methanocinnoline]
2 | 0.0134 µM | CC1(C)[C@H]2CC[C@]1(c1cccnn1)c1nnc(-c3c(F)cccc3F)cc12 [Example 2, (5R,8S)-3-(2,6-difluorophenyl)-9,9-dimethyl-8-(pyridazin-3-yl)-5,6,7,8-tetrahydro-5,8-methanocinnoline]
3 | 0.0384 µM | CC1(C)[C@H]2CC[C@]1(c1c[nH]c(=O)cn1)c1nnc(-c3c(F)cccc3F)cc12 [Example 5, 5-((5R,8S)-3-(2,6-difluorophenyl)-9,9-dimethyl-5,6,7,8-tetrahydro-5,8-methanocinnolin-8-yl)pyrazin-2(1H)-one]
4 | 0.115 µM | CC1(C)[C@H]2CC[C@]1(c1ncc(O)cn1)c1nnc(-c3c(F)cccc3F)cc12 [Example 6, 2-((5R,8R)-3-(2,6-difluorophenyl)-9,9-dimethyl-5,6,7,8-tetrahydro-5,8-methanocinnolin-8-yl)pyrimidin-5-ol]
5 | 0.064 µM | CC1(C)[C@H]2CC[C@]1(c1ccnc(=O)[nH]1)c1nnc(-c3c(F)cccc3F)cc12 [Example 7, 6-((5R,8S)-3-(2,6-difluorophenyl)-9,9-dimethyl-5,6,7,8-tetrahydro-5,8-methanocinnolin-8-yl)pyrimidin-2(1H)-one]
6 | 0.108 µM | Cn1c([C@@]23CC[C@@H](c4cc(-c5c(F)cccc5F)nnc42)C3(C)C)ccc(C#N)c1=O [Example 8, 6-((5R,8S)-3-(2,6-difluorophenyl)-9,9-dimethyl-5,6,7,8-tetrahydro-5,8-methanocinnolin-8-yl)-1-methyl-2-oxo-1,2-dihydropyridine-3-carbonitrile]
7 | 0.0077 µM | COC(=O)c1cncc([C@@]23CC[C@@H](c4cc(-c5c(F)cccc5F)nnc42)C3(C)C)n1 [Example 9, methyl 6-((5R,8S)-3-(2,6-difluorophenyl)-9,9-dimethyl-5,6,7,8-tetrahydro-5,8-methanocinnolin-8-yl)pyrazine-2-carboxylate]
8 | 0.389 µM | COC(=O)c1cnc([C@@]23CC[C@@H](c4cc(-c5c(F)cccc5F)nnc42)C3(C)C)cn1 [Example 10, methyl 5-((5R,8S)-3-(2,6-difluorophenyl)-9,9-dimethyl-5,6,7,8-tetrahydro-5,8-methanocinnolin-8-yl)pyrazine-2-carboxylate]
9 | 0.0389 µM | CC1(C)[C@H]2CC[C@]1(c1cncc(C(=O)O)n1)c1nnc(-c3c(F)cccc3F)cc12 [Example 11, 6-((5R,8S)-3-(2,6-difluorophenyl)-9,9-dimethyl-5,6,7,8-tetrahydro-5,8-methanocinnolin-8-yl)pyrazine-2-carboxylic acid]
10 | 0.0183 µM | CC1(C)[C@H]2CC[C@]1(c1cncc(C(N)=O)n1)c1nnc(-c3c(F)cccc3F)cc12 [Example 12, 6-((5R,8S)-3-(2,6-difluorophenyl)-9,9-dimethyl-5,6,7,8-tetrahydro-5,8-methanocinnolin-8-yl)pyrazine-2-carboxamide]
11 | 4.27 µM | CC1(C)[C@H]2CC[C@]1(c1cnc(C(N)=O)cn1)c1nnc(-c3c(F)cccc3F)cc12 [Example 13, 5-((5R,8S)-3-(2,6-difluorophenyl)-9,9-dimethyl-5,6,7,8-tetrahydro-5,8-methanocinnolin-8-yl)pyrazine-2-carboxamide]
12 | 0.0057 µM | CC1(C)[C@H]2CC[C@]1(c1cncc(C#N)n1)c1nnc(-c3c(F)cccc3F)cc12 [Example 14, 6-((5R,8S)-3-(2,6-difluorophenyl)-9,9-dimethyl-5,6,7,8-tetrahydro-5,8-methanocinnolin-8-yl)pyrazine-2-carbonitrile]
13 | 1.31 µM | CC1(C)[C@H]2CC[C@]1(c1cnc(C#N)cn1)c1nnc(-c3c(F)cccc3F)cc12 [Example 15, 5-((5R,8S)-3-(2,6-difluorophenyl)-9,9-dimethyl-5,6,7,8-tetrahydro-5,8-methanocinnolin-8-yl)pyrazine-2-carbonitrile]
14 | 0.0076 µM | CC1(C)[C@H]2CC[C@]1(c1cccc(C#N)n1)c1nnc(-c3c(F)cccc3F)cc12 [Example 16, 6-((5R,8S)-3-(2,6-difluorophenyl)-9,9-dimethyl-5,6,7,8-tetrahydro-5,8-methanocinnolin-8-yl)picolinonitrile]
15 | 0.0205 µM | CNC(=O)c1cccc([C@@]23CC[C@@H](c4cc(-c5c(F)cccc5F)nnc42)C3(C)C)n1 [Example 17, 6-((5R,8S)-3-(2,6-difluorophenyl)-9,9-dimethyl-5,6,7,8-tetrahydro-5,8-methanocinnolin-8-yl)-N-methylpicolinamide]
16 | 0.0357 µM | CN(C)C(=O)c1cccc([C@@]23CC[C@@H](c4cc(-c5c(F)cccc5F)nnc42)C3(C)C)n1 [Example 18, 6-((5R,8S)-3-(2,6-difluorophenyl)-9,9-dimethyl-5,6,7,8-tetrahydro-5,8-methanocinnolin-8-yl)-N,N-dimethylpicolinamide]

Row | IC50 | Compound
17 | 0.0203 µM | Cc1cncnc1[C@@]12CC[C@@H](c3cc(-c4c(F)cccc4F)nnc31)C2(C)C [Example 19]
18 | 0.14 µM | CC1(C)[C@H]2CC[C@]1(c1nccc(=O)[nH]1)c1nnc(-c3c(F)cccc3F)cc12 [Example 20, 2-((5R,8R)-3-(2,6-difluorophenyl)-9,9-dimethyl-5,6,7,8-tetrahydro-5,8-methanocinnolin-8-yl)pyrimidin-4(3H)-one]
19 | 0.0238 µM | COc1ccnc([C@@]23CC[C@@H](c4cc(-c5c(F)cccc5F)nnc42)C3(C)C)n1 [Example 21, (5R,8R)-3-(2,6-difluorophenyl)-8-(4-methoxypyrimidin-2-yl)-9,9-dimethyl-5,6,7,8-tetrahydro-5,8-methanocinnoline]
20 | 0.0335 µM | CC1(C)[C@H]2CC[C@]1(c1cc(=O)cco1)c1nnc(-c3c(F)cccc3F)cc12 [Example 22, 2-((5R,8R)-3-(2,6-difluorophenyl)-9,9-dimethyl-5,6,7,8-tetrahydro-5,8-methanocinnolin-8-yl)-4H-pyran-4-one]
21 | 0.0219 µM | CC1(C)[C@H]2CC[C@]1(c1ccnc(N)n1)c1nnc(-c3c(F)cccc3F)cc12 [Example 23]
22 | 1.94 µM | CC1(C)[C@H]2CC[C@]1(c1cc(=O)cc[nH]1)c1nnc(-c3c(F)cccc3F)cc12 [Example 24, 2-((5R,8S)-3-(2,6-difluorophenyl)-9,9-dimethyl-5,6,7,8-tetrahydro-5,8-methanocinnolin-8-yl)pyridin-4(1H)-one]
23 | 2.49 µM | CC1(C)[C@H]2CC[C@]1(c1cc(O)cc(=O)o1)c1nnc(-c3c(F)cccc3F)cc12 [Example 25, 6-((5R,8R)-3-(2,6-difluorophenyl)-9,9-dimethyl-5,6,7,8-tetrahydro-5,8-methanocinnolin-8-yl)-4-hydroxy-2H-pyran-2-one]
24 | 0.0572 µM | COc1ccnc([C@@]23CC[C@@H](c4cc(-c5c(F)cccc5F)nnc42)C3(C)C)c1 [Example 26]
25 | 0.0264 µM | CNC(=O)c1cncc([C@@]23CC[C@@H](c4cc(-c5c(F)cccc5F)nnc42)C3(C)C)n1 [Example 27, 6-((5R,8S)-3-(2,6-difluorophenyl)-9,9-dimethyl-5,6,7,8-tetrahydro-5,8-methanocinnolin-8-yl)-N-methylpyrazine-2-carboxamide]
26 | 0.0417 µM | CN(C)C(=O)c1cncc([C@@]23CC[C@@H](c4cc(-c5c(F)cccc5F)nnc42)C3(C)C)n1 [Example 28, 6-((5R,8S)-3-(2,6-difluorophenyl)-9,9-dimethyl-5,6,7,8-tetrahydro-5,8-methanocinnolin-8-yl)-N,N-dimethylpyrazine-2-carboxamide]
27 | 0.0431 µM | CC1(C)[C@H]2CC[C@]1(c1cncc(C(=O)NC3COC3)n1)c1nnc(-c3c(F)cccc3F)cc12 [Example 29, 6-((5R,8S)-3-(2,6-difluorophenyl)-9,9-dimethyl-5,6,7,8-tetrahydro-5,8-methanocinnolin-8-yl)-N-(oxetan-3-yl)pyrazine-2-carboxamide]
28 | 0.146 µM | CC1(C)[C@H]2CC[C@]1(c1cncc(C(=O)N3CC(C#N)C3)n1)c1nnc(-c3c(F)cccc3F)cc12 [Example 30, 1-(6-((5R,8S)-3-(2,6-difluorophenyl)-9,9-dimethyl-5,6,7,8-tetrahydro-5,8-methanocinnolin-8-yl)pyrazine-2-carbonyl)azetidine-3-carbonitrile]
29 | 0.0933 µM | CC1(C)[C@H]2CC[C@]1(c1cncc(C(=O)N3CC(CO)C3)n1)c1nnc(-c3c(F)cccc3F)cc12 [Example 31, (6-((5R,8S)-3-(2,6-difluorophenyl)-9,9-dimethyl-5,6,7,8-tetrahydro-5,8-methanocinnolin-8-yl)pyrazin-2-yl)(3-(hydroxymethyl)azetidin-1-yl)methanone]
30 | 0.022 µM | CC(=O)Nc1cncc([C@@]23CC[C@@H](c4cc(-c5c(F)cccc5F)nnc42)C3(C)C)n1 [Example 32, N-(6-((5R,8S)-3-(2,6-difluorophenyl)-9,9-dimethyl-5,6,7,8-tetrahydro-5,8-methanocinnolin-8-yl)pyrazin-2-yl)acetamide]
31 | 0.022 µM | CC1(C)[C@H]2CC[C@]1(c1cncc(N)n1)c1nnc(-c3c(F)cccc3F)cc12 [Example 33, 6-((5R,8S)-3-(2,6-difluorophenyl)-9,9-dimethyl-5,6,7,8-tetrahydro-5,8-methanocinnolin-8-yl)pyrazin-2-amine]
32 | 0.0759 µM | CC1(C)[C@H]2CC[C@]1(c1cncc(NS(C)(=O)=O)n1)c1nnc(-c3c(F)cccc3F)cc12 [Example 34, N-(6-((5R,8S)-3-(2,6-difluorophenyl)-9,9-dimethyl-5,6,7,8-tetrahydro-5,8-methanocinnolin-8-yl)pyrazin-2-yl)methanesulfonamide]

Reference: US10487068B2, “Pyridazine derivatives as RORc modulators” (Genentech, Inc., priority 2015, dated 2019)
